Results from PubChem BioAssay AID256 (DTP/NCI, 2004).
Where “and” joins values, the source holds several entries; their conditions need not be identical. Equal entries are not always repeated. Toxic doses and inconclusive results are not listed. Rule for the calls: active = survival T/C of 150% or more; inactive = T/C below 125% in these data.

Tested on: CD2F1 mice, L1210 leukemia ip, survival T/C
Experiment: NCI In Vivo Anticancer Drug Screen. Data for tumor model L1210 Leukemia (intraperitoneal) in CD2F1 (CDF1) mice
Details: higher = longer survival
Method in brief: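 Ratio T/C, where T is the treated-group value and C the vehicle-dosed control value, from mice implanted with a transplantable tumor.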

[1] = endpoint: mean survival time, dose: 50.0 mg/kg/injection, schedule: Q01DX009 (ip), vehicle: saline with Tween-80
[2] = endpoint: mean survival time, dose: 25.0 mg/kg/injection, schedule: Q04DX003 (ip), vehicle: Klucel (hydroxypropylcellulose) (HPC)
[3] = endpoint: mean survival time, dose: 50.0 mg/kg/injection, schedule: Q04DX003 (ip), vehicle: Klucel (hydroxypropylcellulose) (HPC)
[4] = endpoint: mean survival time, dose: 100.0 mg/kg/injection, schedule: Q04DX003 (ip), vehicle: Klucel (hydroxypropylcellulose) (HPC)

Measured: T/C

O=c1nc(N2CCCCCC2)ccn1C1OC(CO)C(O)C1O (stereo unspecified)
inactive: endpoint: median survival time, dose: 12.5 mg/kg/injection, schedule: Q01DX005 (ip), vehicle: distilled water + Tween-80 101 % of control | endpoint: median survival time, dose: 25.0 mg/kg/injection, schedule: Q01DX005 (ip), vehicle: distilled water + Tween-80 107 % of control | endpoint: median survival time, dose: 50.0 mg/kg/injection, schedule: Q01DX005 (ip), vehicle: distilled water + Tween-80 98 % of control | endpoint: median survival time, dose: 100.0 mg/kg/injection, schedule: Q01DX005 (ip), vehicle: distilled water + Tween-80 104 % of control | endpoint: median survival time, dose: 200.0 mg/kg/injection, schedule: Q01DX005 (ip), vehicle: distilled water + Tween-80 106 % of control

NC(=O)c1c(F)c(F)c(Oc2c(F)c(F)c(Oc3c(F)c(F)c(C(N)=O)c(F)c3F)c(F)c2F)c(F)c1F
inactive: endpoint: mean survival time, dose: 12.5 mg/kg/injection, schedule: Q01DX009 (ip), vehicle: saline with Tween-80 103 % of control | endpoint: mean survival time, dose: 12.5 mg/kg/injection, schedule: Q04DX003 (ip), vehicle: saline with Tween-80 101 % of control | endpoint: mean survival time, dose: 25.0 mg/kg/injection, schedule: Q01DX009 (ip), vehicle: saline with Tween-80 100 % of control | endpoint: mean survival time, dose: 25.0 mg/kg/injection, schedule: Q04DX003 (ip), vehicle: saline with Tween-80 101 % of control | [1] 101 % of control | endpoint: mean survival time, dose: 50.0 mg/kg/injection, schedule: Q04DX003 (ip), vehicle: saline with Tween-80 98 % of control

C/C=C1\C(=O)O[C@@]23C=C[C@H]4C(C(=O)OC)=CO[C@@H](O[C@H]12)[C@H]43
inactive: endpoint: mean survival time, dose: 50.0 mg/kg/injection, schedule: Q01DX001 (ip), vehicle: saline 95 % of control

O=C(O)C12CCC(CC1)CC2
inactive: endpoint: mean survival time, dose: 75.0 mg/kg/injection, schedule: Q01DX001 (ip), vehicle: other 107 % of control | endpoint: mean survival time, dose: 150.0 mg/kg/injection, schedule: Q01DX001 (ip), vehicle: other 104 % of control | endpoint: mean survival time, dose: 300.0 mg/kg/injection, schedule: Q01DX001 (ip), vehicle: other 104 % of control

CC(=O)[O][Hg][c]1s[c]([Hg][O]C(C)=O)[c]([Hg][O]C(C)=O)[c]1[Hg][O]C(C)=O
inactive: endpoint: mean survival time, dose: 1.5 mg/kg/injection, schedule: Q01DX009 (ip), vehicle: saline sonified 96 % of control | endpoint: mean survival time, dose: 3.0 mg/kg/injection, schedule: Q01DX009 (ip), vehicle: saline sonified 98 % of control | endpoint: mean survival time, dose: 6.0 mg/kg/injection, schedule: Q01DX009 (ip), vehicle: saline sonified 106 % of control | endpoint: mean survival time, dose: 6.25 mg/kg/injection, schedule: Q01DX009 (ip), vehicle: Klucel (hydroxypropylcellulose) (HPC) 101 % of control | endpoint: mean survival time, dose: 6.25 mg/kg/injection, schedule: Q04DX003 (ip), vehicle: saline with Tween-80 104 % of control | endpoint: mean survival time, dose: 12.5 mg/kg/injection, schedule: Q01DX009 (ip), vehicle: Klucel (hydroxypropylcellulose) (HPC) 106 % of control | endpoint: mean survival time, dose: 25.0 mg/kg/injection, schedule: Q01DX009 (ip), vehicle: Klucel (hydroxypropylcellulose) (HPC) 104 % of control

O=C(Nc1cccc(C(F)(F)F)c1)c1ccc(Cl)cc1
inactive: endpoint: mean survival time, dose: 100.0 mg/kg/injection, schedule: Q04DX002 (ip), vehicle: saline with Tween-80 97 % of control | endpoint: mean survival time, dose: 200.0 mg/kg/injection, schedule: Q04DX002 (ip), vehicle: saline with Tween-80 105 % of control | endpoint: mean survival time, dose: 400.0 mg/kg/injection, schedule: Q04DX002 (ip), vehicle: saline with Tween-80 105 % of control

Cc1ccc(S(=O)(=O)OCCC=C(c2ccccc2)c2ccccc2)cc1
inactive: [1] 101 % of control | endpoint: mean survival time, dose: 100.0 mg/kg/injection, schedule: Q01DX009 (ip), vehicle: saline with Tween-80 101 % of control | endpoint: mean survival time, dose: 200.0 mg/kg/injection, schedule: Q01DX009 (ip), vehicle: saline with Tween-80 96 % of control

Cc1cc(N(CCCl)CCCl)ccc1N=Nc1ccccc1C(=O)O
inactive: endpoint: mean survival time, dose: 2.0 mg/kg/injection, schedule: Q01DX009 (ip), vehicle: saline with Tween-80 112 % of control | endpoint: mean survival time, dose: 4.0 mg/kg/injection, schedule: Q01DX009 (ip), vehicle: saline with Tween-80 120 % of control | endpoint: mean survival time, dose: 4.0 mg/kg/injection, schedule: Q04DX003 (ip), vehicle: saline with Tween-80 102 % of control | endpoint: mean survival time, dose: 5.0 mg/kg/injection, schedule: Q01DX009 (ip), vehicle: saline 114 % of control and 106 % of control | endpoint: mean survival time, dose: 8.0 mg/kg/injection, schedule: Q01DX009 (ip), vehicle: saline with Tween-80 120 % of control | endpoint: mean survival time, dose: 8.0 mg/kg/injection, schedule: Q04DX003 (ip), vehicle: saline with Tween-80 109 % of control | endpoint: mean survival time, dose: 10.0 mg/kg/injection, schedule: Q01DX001 (ip), vehicle: saline with Tween-80 106 % of control | endpoint: mean survival time, dose: 10.0 mg/kg/injection, schedule: Q01DX009 (ip), vehicle: saline with Tween-80 114 % of control | endpoint: mean survival time, dose: 10.0 mg/kg/injection, schedule: Q01DX009 (ip), vehicle: saline 115 % of control and 120 % of control | endpoint: mean survival time, dose: 10.0 mg/kg/injection, schedule: Q03DX003 (ip), vehicle: saline 113 % of control | endpoint: mean survival time, dose: 16.0 mg/kg/injection, schedule: Q04DX003 (ip), vehicle: saline with Tween-80 115 % of control | endpoint: mean survival time, dose: 20.0 mg/kg/injection, schedule: Q01DX001 (ip), vehicle: saline with Tween-80 102 % of control | endpoint: mean survival time, dose: 20.0 mg/kg/injection, schedule: Q01DX009 (ip), vehicle: saline with Tween-80 109 % of control | endpoint: mean survival time, dose: 20.0 mg/kg/injection, schedule: Q01DX009 (ip), vehicle: saline 122 % of control | endpoint: mean survival time, dose: 32.0 mg/kg/injection, schedule: Q01DX009 (ip), vehicle: saline with Tween-80 97 % of control | endpoint: mean survival time, dose: 40.0 mg/kg/injection, schedule: Q01DX001 (ip), vehicle: saline with Tween-80 115 % of control and 120 % of control | endpoint: mean survival time, dose: 40.0 mg/kg/injection, schedule: Q01DX007 (ip), vehicle: saline 100 % of control | endpoint: mean survival time, dose: 40.0 mg/kg/injection, schedule: Q01DX009 (ip), vehicle: saline 89 % of control | endpoint: mean survival time, dose: 64.0 mg/kg/injection, schedule: Q04DX003 (ip), vehicle: saline with Tween-80 103 % of control | endpoint: mean survival time, dose: 80.0 mg/kg/injection, schedule: Q01DX001 (ip), vehicle: saline with Tween-80 117 % of control and 91 % of control | endpoint: mean survival time, dose: 160.0 mg/kg/injection, schedule: Q01DX001 (ip), vehicle: saline with Tween-80 102 % of control | endpoint: median survival time, dose: 5.0 mg/kg/injection, schedule: Q01DX009 (ip), vehicle: saline 114 % of control and 105 % of control | endpoint: median survival time, dose: 10.0 mg/kg/injection, schedule: Q01DX009 (ip), vehicle: saline 117 % of control | endpoint: median survival time, dose: 20.0 mg/kg/injection, schedule: Q01DX009 (ip), vehicle: saline 117 % of control | endpoint: median survival time, dose: 40.0 mg/kg/injection, schedule: Q01DX009 (ip), vehicle: saline 114 % of control and 117 % of control

FCCc1ccccc1
inactive: endpoint: mean survival time, dose: 50.0 mg/kg/injection, schedule: Q04DX003 (ip), vehicle: saline sonified 98 % of control | endpoint: mean survival time, dose: 100.0 mg/kg/injection, schedule: Q01DX001 (ip), vehicle: saline with Tween-80 97 % of control and 94 % of control | endpoint: mean survival time, dose: 100.0 mg/kg/injection, schedule: Q04DX003 (ip), vehicle: saline sonified 98 % of control | endpoint: mean survival time, dose: 200.0 mg/kg/injection, schedule: Q01DX001 (ip), vehicle: saline with Tween-80 95 % of control | endpoint: mean survival time, dose: 200.0 mg/kg/injection, schedule: Q04DX003 (ip), vehicle: saline sonified 98 % of control | endpoint: mean survival time, dose: 400.0 mg/kg/injection, schedule: Q01DX001 (ip), vehicle: saline with Tween-80 103 % of control and 94 % of control

ClCc1ccc(CCl)cc1
inactive: [2] 98 % of control | [3] 105 % of control | [4] 89 % of control

CCOC(=O)c1ncn(C2OC(COC(=O)c3ccccc3)C(OC(=O)c3ccccc3)C2OC(=O)c2ccccc2)c1C (stereo unspecified)
inactive: endpoint: median survival time, dose: 48.9 mg/kg/injection, schedule: Q01DX005 (ip), vehicle: saline with Tween-80 98 % of control | endpoint: median survival time, dose: 97.8 mg/kg/injection, schedule: Q01DX005 (ip), vehicle: saline with Tween-80 100 % of control | endpoint: median survival time, dose: 195.6 mg/kg/injection, schedule: Q01DX005 (ip), vehicle: saline with Tween-80 90 % of control

CC(C)(C)Nc1ccc([N+](=O)[O-])cc1Cl
inactive: endpoint: mean survival time, dose: 12.5 mg/kg/injection, schedule: Q01DX001 (ip), vehicle: DMSO 89 % of control | endpoint: mean survival time, dose: 25.0 mg/kg/injection, schedule: Q01DX001 (ip), vehicle: DMSO 100 % of control | [2] 93 % of control | endpoint: mean survival time, dose: 50.0 mg/kg/injection, schedule: Q01DX001 (ip), vehicle: DMSO 103 % of control | [3] 94 % of control | [4] 91 % of control
